According to patent US5409933A, “Quinoline derivatives and processes for preparing the same” (priority 1993, dated 1995):
Counter-ions that a name gives are not always drawn. Like-named read-outs stand apart in the source and are kept apart here.

What was measured:
Experiment in all cases: In Vitro Anti-Bacterial Activity Test (MIC, agar dilution)
Type in all cases: cell-based
[1] = system: Pseudomonas aeruginosa 1771; conditions: Pseudomonas aeruginosa 1771, Muller-Hinton agar, 37° C., 18 hours
Description: (§1) The above in vitro antibacterial activity test was carried out in accordance with the agar culture medium dilution method (Hoechst 345) by using Muller-Hinton agar medium to determine the minimum inhibitory concentration (MIC).
(§2) The strains having 10^7 C.F.U./ml were inoculated on the culture medium, and the growth of the strains was observed after incubating them at 37° C. for 18 hours, in which ciprofloxacin was used as a control antibacterial agent. In this test, twenty typical strains were used.

Escherichia coli 078 = system: Escherichia coli 078
Description: as §1, §2

Klebsiella oxytoca 1082E = system: Klebsiella oxytoca 1082E
Description: as §1, §2

[2] = system: Streptococcus faecium MD8b; conditions: Muller-Hinton agar, 37° C., 18 hours
Description: as §1, §2

Enterobacter cloacae P99 = system: Enterobacter cloacae P99
Description: as §1, §2

[3] = system: Pseudomonas aeruginosa 9027; conditions: Muller-Hinton agar, 37° C., 18 hours
Description: as §1, §2

Escherichia coli TEM = conditions: Muller-Hinton agar, 37° C.
Description: as §1, §2

Escherichia coli 1507E = conditions: Muller-Hinton agar, 37° C.
Description: as §1, §2

[4] = system: Staphylococcus aureus SG511
Description: as §1, §2

[5] = system: Staphylococcus aureus 503
Description: as §1, §2

[6] = system: Staphylococcus aureus 285
Description: as §1, §2

Salmonella typhimurium = system: Salmonella typhimurium
Description: as §1, §2

[7] = system: Enterobacter cloacae 1321E; conditions: Enterobacter cloacae 1321E, Muller-Hinton agar, 37° C., 18 hours
Description: as §1, §2

Escherichia coli DC0 = conditions: Muller-Hinton agar, 37° C., 18 hours
Description: as §1, §2

[8] = system: Streptococcus pyogenes 308A; conditions: Muller-Hinton agar, 37° C., 18 hours
Description: as §1, §2

[9] = system: Pseudomonas aeruginosa 1771M; conditions: Muller-Hinton agar, 37° C.
Description: as §1, §2

Escherichia coli DC2 = system: Escherichia coli DC2
Description: as §1, §2

[10] = system: Pseudomonas aeruginosa 1592E; conditions: Muller-Hinton agar, 37° C., 18 hours
Description: as §1, §2

[11] = system: Streptococcus pyogenes 77A; conditions: Streptococcus pyogenes 77A, Muller-Hinton agar, 37° C., 18 hours
Description: as §1, §2

[12] = system: Klebsiella aerogenes 1522E
Description: as §1, §2

[13] = Escherichia coli 078, Muller-Hinton agar, 37° C., 18 hours, read-out: MIC
[14] = Klebsiella oxytoca 1082E, Muller-Hinton agar, 37° C., 18 hours, read-out: MIC
[15] = Enterococcus faecium, read-out: MIC
[16] = Enterobacter cloacae, P99, 18 h
[17] = Staphylococcus aureus SG511, Muller-Hinton agar, 37° C., 18 hours, read-out: MIC
[18] = Staphylococcus aureus 503, Muller-Hinton agar, 37° C., 18 hours, read-out: MIC
[19] = Staphylococcus aureus, 285, 18 h, Staphylococcus aureus 285, Muller-Hinton agar, 37° C., 18 hours, read-out: MIC
[20] = Salmonella enterica, Salmonella typhimurium, Muller-Hinton agar, 37° C., 18 hours, read-out: MIC
[21] = Pseudomonas aeruginosa, 1771M, 18 h
[22] = Klebsiella aerogenes, 1522E, 18 h, Klebsiella aerogenes 1522E, Muller-Hinton agar, 37° C., 18 hours, read-out: MIC
[23] = Klebsiella aerogenes, 1522E, 18 h

Compound | MIC ([1]; read-out: MIC) [µg/mL] | MIC (Klebsiella oxytoca 1082E; [14]) [µg/mL] | MIC [2, 15] [µg/mL] | MIC (Enterobacter cloacae P99; [16]) [µg/mL] | MIC ([3]; read-out: MIC) [µg/mL] | MIC (Escherichia coli TEM; Escherichia coli, 18 h) [µg/mL] | MIC (Escherichia coli 1507E; Escherichia coli, 1507E, 18 h) [µg/mL] | MIC [4, 17] [µg/mL] | MIC [5, 18] [µg/mL] | MIC [6, 19] [µg/mL] | MIC (Salmonella typhimurium; [20]) [µg/mL] | MIC ([7]; read-out: MIC) [µg/mL] | MIC (Escherichia coli DC0; read-out: MIC) [µg/mL] | MIC ([8]; read-out: MIC) [µg/mL] | MIC [9, 21] [µg/mL] | MIC (Escherichia coli DC2; Escherichia coli, DC2, 18 h) [µg/mL] | MIC ([10]; read-out: MIC) [µg/mL] | MIC ([11]; read-out: MIC) [µg/mL] | MIC [12, 22] [µg/mL] | MIC (Escherichia coli 078; Escherichia coli, 078, 18 h) [µg/mL] | other results
CCOC(=O)CC(=O)c1cn(C2CC2)c2c(Cl)c(N3CCC(N)C3)c(F)cc2c1=O (stereo not shown) [Example 25, 1-cyclopropyl-6-fluoro-8-chloro-7-(3-aminopyrrolidin-1-yl)-3-(2-ethoxycarbonylacetyl)-1,4-dihydro-4-oxoquinoline hydrochloride] | 0.195 | < 0.002 | 0.391 | 0.004 | 0.391 | < 0.002 | 0.025 | 0.098 | 0.049 | 0.049 | 0.004 | < 0.002 | 0.098 | 0.781 | 0.098 | 0.025 | 0.195 | 0.391 | 0.013 | – | MIC (Escherichia coli 078; [13]): < 0.002 µg/mL
N[C@@H]1CCN(c2c(F)cc3c(=O)c(C(=O)C[N+](=O)[O-])cn(C4CC4)c3c2Cl)C1 [Example 12, 1-cyclopropyl-6-fluoro-8-chloro-7-(3-3R-aminopyrrolidin-1-yl)-3-(2-nitroacetyl)-1,4-dihydro-4-oxoquinoline hydrochloride] | 0.195 | < 0.002 | 0.098 | 0.004 | 0.391 | 0.004 | – | – | – | – | < 0.002 | < 0.002 | 0.098 | 0.391 | 0.049 | 0.049 | 0.391 | 0.195 | – | – | MIC (Escherichia coli 078; [13]): < 0.002 µg/mL; MIC (Escherichia coli 1507E; 18 hours, read-out: MIC): 0.004 µg/mL; MIC ([4]; Staphylococcus aureus, SG511, 18 h): 0.025 µg/mL; MIC ([5]; Staphylococcus aureus, 503, 18 h): 0.025 µg/mL; MIC ([6]; Staphylococcus aureus, 285, 18 h): 0.025 µg/mL; MIC [12, 23]: 0.025 µg/mL
NC1CCN(c2c(F)cc3c(=O)c(C(=O)C[N+](=O)[O-])cn(CCF)c3c2F)C1 (stereo not shown) [Example 31, 1-(2-fluoroethyl)-6,8-difluoro-7-(3-aminopyrrolidin-1-yl)-3-(2-nitroacetyl)-1,4-dihydro-4-oxoquinoline hydrochloride] | 0.781 | – | 0.781 | 0.098 | 0.781 | 0.195 | – | 0.781 | 0.391 | 0.391 | 0.391 | 0.049 | 0.195 | 3.12 | 0.391 | 0.391 | 0.781 | 1.56 | 0.098 | 0.391 | MIC (Klebsiella oxytoca 1082E; Klebsiella oxytoca, 1082E, 18 h): 0.195 µg/mL; MIC (Escherichia coli 1507E; 18 hours, read-out: MIC): 0.198 µg/mL
CCOC(=O)C(C#N)C(=O)c1cn(C2CC2)c2c(Cl)c(N3CCC(N)C3)c(F)cc2c1=O (stereo not shown) [Example 39, 1-cyclopropyl-6-fluoro-8-chloro-7-(3-aminopyrrolidin-1-yl)-3-(2-cyano-2-ethoxycarbonylacetyl)-1,4-dihydro-4-oxoquinoline hydrochloride] | 12.5 | 0.049 | 6.25 | 0.391 | 12.5 | 0.391 | 0.781 | 1.56 | 1.56 | 1.56 | – | 0.049 | 6.25 | 25 | 3.12 | – | 12.5 | 6.25 | 0.781 | 0.049 | MIC (Salmonella typhimurium; Salmonella enterica, TYPHIMURIUM, 18 h): 0.391 µg/mL; MIC (Escherichia coli DC2; Escherichia coli DC2, Muller-Hinton agar, 37° C., 18 hours, read-out: MIC): 3.12 µg/mL
NC1CCN(c2c(F)cc3c(=O)c(C(=O)C[N+](=O)[O-])cn(C4CC4)c3c2Cl)C1 (stereo not shown) [Example 11, 1-cyclopropyl-6-fluoro-8-chloro-7-(3-aminopyrrolidin-1-yl)-3-(2-nitroacetyl)-1,4-dihydro-4-oxoquinoline hydrochloride] | 0.098 | < 0.002 | 0.098 | < 0.002 | 0.195 | < 0.002 | – | 0.013 | 0.025 | 0.025 | < 0.002 | < 0.002 | 0.049 | 0.195 | 0.025 | 0.013 | 0.195 | 0.098 | 0.007 | – | MIC (Escherichia coli 078; [13]): < 0.002 µg/mL; MIC (Escherichia coli 1507E; 18 hours, read-out: MIC): < 0.002 µg/mL
1-cyclopropyl-6-fluoro-8-chloro-7-(7-amino-5-azaspiro[2.4]hept-5-yl)-3-(2- nitroacetyl)-1,4-dihydro-4-oxoquinoline hydrochloride [Example 35] | – | – | – | – | – | – | – | – | – | – | – | – | – | – | – | – | – | – | – | – | MIC [1]: 0.391 µg/mL; MIC (Escherichia coli 078; Escherichia coli 078, Muller-Hinton agar, 37° C., 18 hours): 0.007 µg/mL; MIC (Klebsiella oxytoca 1082E; Klebsiella oxytoca 1082E, Muller-Hinton agar, 37° C., 18 hours): < 0.002 µg/mL; MIC [2]: 0.098 µg/mL; MIC (Enterobacter cloacae P99; Enterobacter cloacae P99, Muller-Hinton agar, 37° C., 18 hours): 0.025 µg/mL; MIC [3]: 0.781 µg/mL; MIC (Escherichia coli TEM; 18 hours): 0.013 µg/mL; MIC (Escherichia coli 1507E; 18 hours): 0.007 µg/mL; MIC ([4]; Staphylococcus aureus SG511, Muller-Hinton agar, 37° C., 18 hours): 0.025 µg/mL; MIC ([5]; Staphylococcus aureus 503, Muller-Hinton agar, 37° C., 18 hours): 0.013 µg/mL; MIC ([6]; Staphylococcus aureus 285, Muller-Hinton agar, 37° C., 18 hours): 0.025 µg/mL; MIC (Salmonella typhimurium; Salmonella typhimurium, Muller-Hinton agar, 37° C., 18 hours): 0.013 µg/mL; MIC [7]: 0.025 µg/mL; MIC (Escherichia coli DC0): 0.098 µg/mL; MIC [8]: 0.195 µg/mL; MIC ([9]; 18 hours): 0.098 µg/mL; MIC (Escherichia coli DC2; Escherichia coli DC2, Muller-Hinton agar, 37° C., 18 hours): 0.049 µg/mL; MIC [10]: 0.781 µg/mL; MIC [11]: 0.098 µg/mL; MIC ([12]; Klebsiella aerogenes 1522E, Muller-Hinton agar, 37° C., 18 hours): 0.013 µg/mL
CCOC(=O)C(C#N)C(=O)c1cn(C2CC2)c2c(Cl)c(N3CC4=C(CNC4)C3)c(F)cc2c1=O (stereo not shown) [Example 41, 1-cyclopropyl-6-fluoro-8-chloro-7-(3,7-diazabicyclo[3.3.0]oct-1,5-en-3-yl)-3-(2-cyano-2-ethoxycarbonylacetyl)-1,4-dihydro-4-oxoquinoline hydrochloride] | 3.12 | 0.049 | 25 | 0.098 | 6.25 | 0.195 | 0.391 | 3.12 | 6.25 | 6.25 | 0.098 | 0.049 | 3.12 | 25 | 1.56 | 1.56 | 3.12 | 12.5 | – | 0.049 | MIC [12, 23]: 0.195 µg/mL
CCOC(=O)C(C(=O)OCC)C(=O)c1cn(C2CC2)c2c(Cl)c(N3CC4=C(CNC4)C3)c(F)cc2c1=O [Example 36, 1-cyclopropyl-6-fluoro-8-chloro-7-(3,7-diazabicyclo[3.3.0]oct-1,5-en-3-yl)-3-(2,2-diethoxycarbonylacetyl)-1,4-dihydro-4-oxoquinoline hydrochloride] | 0.781 | 0.007 | 0.195 | 0.025 | 1.56 | 0.025 | 0.025 | 0.025 | 0.049 | 0.049 | 0.025 | 0.025 | 0.195 | 0.391 | 0.195 | 0.049 | 0.781 | 0.098 | 0.025 | 0.007 | –
